Laboratory results: PubChem BioAssay (NCI)
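Growth conditions: 96-well plates. Treatment: test compound, 48 hours, 5 concentrations. Analysis: linear interpolation between bracketing concentrations; unreached endpoints set to highest concentration. GI50: concentration for 50% inhibition of growth. At the TGI there is no net growth.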

Tests used:
Test in all cases: DTP human tumour cell line panel, 48 h
MOLT-4 leukemia = tested on: MOLT-4 leukemia
SK-OV-3 ovarian = tested on: SK-OV-3 ovarian
SK-MEL-28 melanoma = tested on: SK-MEL-28 melanoma
MCF7 breast = tested on: MCF7 breast
IGROV1 ovarian = tested on: IGROV1 ovarian
SF-268 CNS = tested on: SF-268 CNS
HT29 colon = tested on: HT29 colon
LOX IMVI melanoma = tested on: LOX IMVI melanoma
SNB-19 CNS = tested on: SNB-19 CNS
SF-295 CNS = tested on: SF-295 CNS
KM12 colon = tested on: KM12 colon
T-47D breast = tested on: T-47D breast
MDA-MB-435 = tested on: MDA-MB-435
NCI-H226 lung = tested on: NCI-H226 lung
M14 melanoma = tested on: M14 melanoma
SK-MEL-2 melanoma = tested on: SK-MEL-2 melanoma
ACHN renal = tested on: ACHN renal
SK-MEL-5 melanoma = tested on: SK-MEL-5 melanoma
K-562 leukemia = tested on: K-562 leukemia
RXF 393 renal = tested on: RXF 393 renal
HCT-116 colon = tested on: HCT-116 colon
SR leukemia = tested on: SR leukemia
SNB-75 CNS = tested on: SNB-75 CNS
786-0 renal = tested on: 786-0 renal
HCT-15 colon = tested on: HCT-15 colon
U251 CNS = tested on: U251 CNS
UO-31 renal = tested on: UO-31 renal
OVCAR-8 ovarian = tested on: OVCAR-8 ovarian
OVCAR-3 ovarian = tested on: OVCAR-3 ovarian
HL-60(TB) leukemia = tested on: HL-60(TB) leukemia
HS 578T breast = tested on: HS 578T breast
CAKI-1 renal = tested on: CAKI-1 renal
SN12C renal = tested on: SN12C renal
PC-3 prostate = tested on: PC-3 prostate
COLO 205 colon = tested on: COLO 205 colon
A498 renal = tested on: A498 renal
A549 NSCLC = tested on: A549 NSCLC
UACC-62 melanoma = tested on: UACC-62 melanoma
BT-549 breast = tested on: BT-549 breast
DU-145 prostate = tested on: DU-145 prostate
RPMI-8226 leukemia = tested on: RPMI-8226 leukemia
SF-539 CNS = tested on: SF-539 CNS
NCI-H522 lung = tested on: NCI-H522 lung
SW-620 colon = tested on: SW-620 colon
NCI-H460 lung = tested on: NCI-H460 lung
MDA-MB-231 breast = tested on: MDA-MB-231 breast
HOP-62 NSCLC = tested on: HOP-62 NSCLC
UACC-257 melanoma = tested on: UACC-257 melanoma
EKVX NSCLC = tested on: EKVX NSCLC
TK-10 renal = tested on: TK-10 renal
CCRF-CEM leukemia = tested on: CCRF-CEM leukemia
OVCAR-4 ovarian = tested on: OVCAR-4 ovarian
HOP-92 NSCLC = tested on: HOP-92 NSCLC
NCI-H23 lung = tested on: NCI-H23 lung
MALME-3M melanoma = tested on: MALME-3M melanoma
OVCAR-5 ovarian = tested on: OVCAR-5 ovarian
HCC-2998 colon = tested on: HCC-2998 colon
NCI/ADR-RES ovarian = tested on: NCI/ADR-RES ovarian

SMILES: O=C(NCc1ccc(Cl)cc1Cl)c1ccc(NC2=C(Cl)C(=O)N(Cc3ccccc3)C2=O)cc1
- GI50 (MOLT-4 leukemia): 7.17 µM
- TGI (MOLT-4 leukemia): 23.9 µM
- GI50 (SK-OV-3 ovarian): 57.5 µM
- TGI (SK-OV-3 ovarian): > 100 µM
- GI50 (SK-MEL-28 melanoma): 41.6 µM
- TGI (SK-MEL-28 melanoma): > 100 µM
- GI50 (MCF7 breast): 11.9 µM
- TGI (MCF7 breast): 48.9 µM
- GI50 (IGROV1 ovarian): 15.8 µM
- TGI (IGROV1 ovarian): > 100 µM
- GI50 (SF-268 CNS): 18.9 µM
- TGI (SF-268 CNS): 49.1 µM
- GI50 (HT29 colon): 54.3 µM
- TGI (HT29 colon): > 100 µM
- GI50 (LOX IMVI melanoma): 7.02 µM
- TGI (LOX IMVI melanoma): > 100 µM
- GI50 (SNB-19 CNS): 44.1 µM
- TGI (SNB-19 CNS): > 100 µM
- GI50 (SF-295 CNS): 32.8 µM
- TGI (SF-295 CNS): > 100 µM
- GI50 (KM12 colon): 38.4 µM
- TGI (KM12 colon): > 100 µM
- GI50 (T-47D breast): 51.3 µM
- TGI (T-47D breast): > 100 µM
- GI50 (MDA-MB-435): 33.4 µM
- TGI (MDA-MB-435): > 100 µM
- GI50 (NCI-H226 lung): 26.8 µM
- TGI (NCI-H226 lung): > 100 µM
- GI50 (M14 melanoma): 58.7 µM
- TGI (M14 melanoma): > 100 µM
- GI50 (SK-MEL-2 melanoma): 78.8 µM
- TGI (SK-MEL-2 melanoma): > 100 µM
- GI50 (ACHN renal): 20.8 µM
- TGI (ACHN renal): 48.1 µM
- GI50 (SK-MEL-5 melanoma): 24 µM
- TGI (SK-MEL-5 melanoma): 66.7 µM
- GI50 (K-562 leukemia): 9.98 µM
- TGI (K-562 leukemia): 30.9 µM
- GI50 (RXF 393 renal): 18.7 µM
- TGI (RXF 393 renal): 52.6 µM
- GI50 (HCT-116 colon): 53.5 µM
- TGI (HCT-116 colon): > 100 µM
- GI50 (SR leukemia): 0.734 µM
- TGI (SR leukemia): 2.55 µM
- GI50 (SNB-75 CNS): 17.8 µM
- TGI (SNB-75 CNS): 34.2 µM
- GI50 (786-0 renal): 30.1 µM
- TGI (786-0 renal): > 100 µM
- GI50 (HCT-15 colon): 32.4 µM
- TGI (HCT-15 colon): > 100 µM
- GI50 (U251 CNS): 15.7 µM
- TGI (U251 CNS): 34.2 µM
- GI50 (UO-31 renal): 3.41 µM
- TGI (UO-31 renal): > 100 µM
- GI50 (OVCAR-8 ovarian): 12 µM
- TGI (OVCAR-8 ovarian): 26.5 µM
- GI50 (OVCAR-3 ovarian): 31.9 µM
- TGI (OVCAR-3 ovarian): > 100 µM
- GI50 (HL-60(TB) leukemia): 14.8 µM
- TGI (HL-60(TB) leukemia): 60.8 µM
- GI50 (HS 578T breast): 23.4 µM
- TGI (HS 578T breast): 52.7 µM
- GI50 (CAKI-1 renal): 18.2 µM
- TGI (CAKI-1 renal): 52.4 µM
- GI50 (SN12C renal): 26.7 µM
- TGI (SN12C renal): 75.5 µM
- GI50 (PC-3 prostate): 14.3 µM
- TGI (PC-3 prostate): 31.9 µM
- GI50 (COLO 205 colon): 23.3 µM
- TGI (COLO 205 colon): 66.5 µM
- GI50 (A498 renal): 28.1 µM
- TGI (A498 renal): 56.8 µM
- GI50 (A549 NSCLC): 36 µM
- TGI (A549 NSCLC): > 100 µM
- GI50 (UACC-62 melanoma): 18.4 µM
- TGI (UACC-62 melanoma): 39.8 µM
- GI50 (BT-549 breast): 20.3 µM
- TGI (BT-549 breast): 42 µM
- GI50 (DU-145 prostate): 39.9 µM
- TGI (DU-145 prostate): > 100 µM
- GI50 (RPMI-8226 leukemia): 4.45 µM
- TGI (RPMI-8226 leukemia): 44.5 µM
- GI50 (SF-539 CNS): 21.3 µM
- TGI (SF-539 CNS): 39.1 µM
- GI50 (NCI-H522 lung): 24.6 µM
- TGI (NCI-H522 lung): > 100 µM
- GI50 (SW-620 colon): 26.9 µM
- TGI (SW-620 colon): > 100 µM
- GI50 (NCI-H460 lung): 17.8 µM
- TGI (NCI-H460 lung): 47 µM
- GI50 (MDA-MB-231 breast): 21.1 µM
- TGI (MDA-MB-231 breast): 55.9 µM
- GI50 (HOP-62 NSCLC): 36.3 µM
- TGI (HOP-62 NSCLC): > 100 µM
- GI50 (UACC-257 melanoma): 61 µM
- TGI (UACC-257 melanoma): > 100 µM
- GI50 (EKVX NSCLC): 36.4 µM
- TGI (EKVX NSCLC): > 100 µM
- GI50 (TK-10 renal): 28.7 µM
- TGI (TK-10 renal): 91.4 µM
- GI50 (CCRF-CEM leukemia): 1.41 µM
- TGI (CCRF-CEM leukemia): 7.65 µM
- GI50 (OVCAR-4 ovarian): 18.5 µM
- TGI (OVCAR-4 ovarian): 40.3 µM
- GI50 (HOP-92 NSCLC): 10.6 µM
- TGI (HOP-92 NSCLC): 27.8 µM

SMILES: CCOC(=O)c1sc2nc(SC)nc3c2c1NCN3C1CC1
- TGI (SK-OV-3 ovarian): > 100 µM
- TGI (NCI-H23 lung): > 100 µM
- TGI (SK-MEL-28 melanoma): > 100 µM
- TGI (IGROV1 ovarian): > 100 µM
- TGI (SF-268 CNS): > 100 µM
- TGI (HT29 colon): > 100 µM
- TGI (LOX IMVI melanoma): > 100 µM
- TGI (SNB-19 CNS): > 100 µM
- TGI (SF-295 CNS): > 100 µM
- TGI (KM12 colon): > 100 µM
- TGI (T-47D breast): > 100 µM
- TGI (MDA-MB-435): > 100 µM
- TGI (NCI-H226 lung): > 100 µM
- TGI (M14 melanoma): > 100 µM
- TGI (SK-MEL-2 melanoma): > 100 µM
- TGI (ACHN renal): > 100 µM
- TGI (MALME-3M melanoma): > 100 µM
- TGI (SK-MEL-5 melanoma): > 100 µM
- TGI (OVCAR-5 ovarian): > 100 µM
- TGI (RXF 393 renal): > 100 µM
- TGI (HCT-116 colon): > 100 µM
- TGI (HCC-2998 colon): > 100 µM
- TGI (SNB-75 CNS): > 100 µM
- TGI (786-0 renal): > 100 µM
- TGI (HCT-15 colon): > 100 µM
- TGI (NCI/ADR-RES ovarian): > 100 µM
- TGI (U251 CNS): > 100 µM
- TGI (UO-31 renal): > 100 µM
- TGI (OVCAR-8 ovarian): > 100 µM
- TGI (OVCAR-3 ovarian): > 100 µM
- TGI (HS 578T breast): > 100 µM
- TGI (CAKI-1 renal): > 100 µM
- TGI (SN12C renal): > 100 µM
- TGI (PC-3 prostate): > 100 µM
- TGI (COLO 205 colon): > 100 µM
- TGI (A498 renal): > 100 µM
- TGI (A549 NSCLC): > 100 µM
- TGI (UACC-62 melanoma): > 100 µM
- TGI (BT-549 breast): > 100 µM
- TGI (DU-145 prostate): > 100 µM
- TGI (RPMI-8226 leukemia): > 100 µM
- TGI (NCI-H460 lung): > 100 µM
- TGI (MDA-MB-231 breast): > 100 µM
- TGI (HOP-62 NSCLC): > 100 µM
- TGI (UACC-257 melanoma): > 100 µM
- TGI (TK-10 renal): > 100 µM
- TGI (CCRF-CEM leukemia): > 100 µM
- TGI (OVCAR-4 ovarian): > 100 µM
- TGI (HOP-92 NSCLC): > 100 µM
